This assay deals with RBL-2H3. The assay can be described thus: Inhibition of DNP-BSA-induced degranulation in rat RBL2H3 cells assessed as reduction in beta-hexosaminidase release after 20 mins by spectrophotometry. Particulars: RBL-2H3, 20 min. Format: functional, cell-based.

As a reminder, the pIC50 is the negative decadic logarithm of the IC50, by convention in mol/L.

pIC50: −log10 of the molar value. Bounds are passed on as bounds.

Take `C=CC(CC(O)c1ccc(OC)cc1)c1ccc(OC)cc1` (stereo not given): the negative logarithm of the IC50 (pIC50) was less than 3.70.
Turning to `C=CC(CC(O)c1ccc(O)cc1)c1ccc(O)cc1` (stereo not given), the pIC50 is less than 3.70.
The result for `C=CC(CC(=O)c1ccc(OC)cc1)c1cccc(OC)c1` (stereo not given) reads 4.07.
For `C=CC(CC(=O)c1ccc(O)cc1)c1cccc(OC)c1` (stereo not given), the negative-log IC50 (pIC50) is 4.75.
With `C=CC(CC(=O)c1ccc(O)cc1)c1ccc(O)cc1` (stereo not given) the figure was 4.46; with `C=CC(/C=C/c1ccc(OC)cc1)c1cccc(OC)c1` (stereo not given), less than 3.70.
With `C=CC(/C=C/c1ccc(OC)cc1)c1ccc(OC)cc1` (stereo not given) the figure was less than 3.70.
The result for `C=CC(CC(O)c1ccc(OC)cc1)c1cccc(OC)c1` (stereo not given) reads less than 3.70; that for `C=CC(CC(=O)c1ccc(O)cc1)c1cccc(O)c1` (stereo not given), 4.74; that for `C=CC(CC(=O)c1ccc(OC)cc1)c1ccc(OC)cc1` (stereo not given), 4.05.
For the molecule `C=CC(/C=C/c1ccc(O)cc1)c1cccc(O)c1` (stereo not given), the negative-log IC50 (pIC50) was 4.25.
The result for `C=CC(CC(O)c1ccc(O)cc1)c1cccc(O)c1` (stereo not given) reads 4.47.
The result for `C=CC(/C=C/c1ccc(O)cc1)c1ccc(O)cc1` (stereo not given) reads 4.26; that for `CN1CCC(=C2c3ccccc3CC(=O)c3sccc32)CC1` [KETOTIFEN], 4.45.
On to `C=CC(CC(=O)c1ccc(OC)cc1)c1cccc(O)c1` (stereo not given), for which the pIC50 is 4.04.

The values above are taken from ChEMBL document CHEMBL2029333, “Synthesis of norlignans and in vitro inhibitory activity of antigen-induced degranulation” (Bioorg Med Chem Lett, 2012).
